Experimental data as given in patent US7915276B2, “Berberrubine derivatives having antifungal activities” (priority 2006, dated 2011).

What was measured:
[1] = biological target: T1, chitin synthase 2 of Saccharomyces cerevisiae ECY38-38A(pAS6) (Saccharomyces cerevisiae, UniProt P14180); test: In vitro enzyme assay for chitin synthase 2 of Saccharomyces cerevisiae (enzyme 2); format: biochemical; details: relative to polyoxin D (50% inhibitory activity = value 5)
T1 construct: made in house; host or cells: Saccharomyces cerevisiae ECY38-38A (chs1-23 chs2::LEU2 cal1/csd2) carrying plasmid pAS6, grown in galactose medium; 130,000 x g membrane pellet
T1 sequence (P14180 whole entry): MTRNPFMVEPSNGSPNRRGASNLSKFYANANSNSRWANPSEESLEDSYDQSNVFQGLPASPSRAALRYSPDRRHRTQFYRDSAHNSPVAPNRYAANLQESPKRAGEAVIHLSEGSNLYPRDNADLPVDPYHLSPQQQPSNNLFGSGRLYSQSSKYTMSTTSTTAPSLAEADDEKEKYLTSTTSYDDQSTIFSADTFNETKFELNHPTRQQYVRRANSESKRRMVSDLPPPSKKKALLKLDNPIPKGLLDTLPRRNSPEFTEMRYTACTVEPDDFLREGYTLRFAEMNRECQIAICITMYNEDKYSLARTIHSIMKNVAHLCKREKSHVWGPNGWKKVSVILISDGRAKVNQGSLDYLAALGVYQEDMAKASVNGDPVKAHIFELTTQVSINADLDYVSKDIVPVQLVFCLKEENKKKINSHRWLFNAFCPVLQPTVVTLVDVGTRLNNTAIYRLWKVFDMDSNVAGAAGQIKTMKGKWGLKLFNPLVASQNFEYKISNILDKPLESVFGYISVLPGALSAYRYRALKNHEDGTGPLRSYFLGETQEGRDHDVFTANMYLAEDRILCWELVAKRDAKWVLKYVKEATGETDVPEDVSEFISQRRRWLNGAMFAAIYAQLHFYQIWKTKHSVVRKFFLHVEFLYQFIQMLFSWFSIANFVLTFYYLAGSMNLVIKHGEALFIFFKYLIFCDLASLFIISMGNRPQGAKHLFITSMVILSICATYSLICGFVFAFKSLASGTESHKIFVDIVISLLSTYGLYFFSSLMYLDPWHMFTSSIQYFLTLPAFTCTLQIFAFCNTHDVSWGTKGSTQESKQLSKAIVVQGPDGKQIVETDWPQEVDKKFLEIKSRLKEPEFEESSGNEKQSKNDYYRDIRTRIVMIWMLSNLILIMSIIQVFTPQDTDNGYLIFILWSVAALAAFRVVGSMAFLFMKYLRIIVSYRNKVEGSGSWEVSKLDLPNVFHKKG
Procedure: Crude enzyme was prepared using the recombinant Saccharomyces cerevisiae ECY38-38A(pAS6) (MATa chs1-23 chs2::LEU2 cal 1/csd 2 ura 3-52 trp 1-1 leu 2-2 pAS6) strain, which can produce the chitin synthase 2 only. The strain was inoculated with the YPG culture medium (1% yeast extract, 2% peptone, 2% galactose) and cultured at 30° C. overnight. Then, it was inoculated with a fresh YPG culture medium and cultured for 15-17 hours until the Absorbance at 550 nm reaches 1.0. The cells were collected and suspended in 50 mM Tris-HCl (pH 7.5) buffer containing 5 mM magnesium acetate. After centrifugation at 8,000×g for 10 minutes, the pellets were suspended in the same Tris-HCl buffer solution. The suspension was divided into aliquots in 50 mL conical test tubes. After adding the glass beads, the cells were disrupted by vigorously vortexing with an interval of 30 seconds. The cell residues were removed by centrifuging at 3,000×g for 5 minutes. The supernatant was ultra-centrifuged at 130,000×g for 1 hour. The resultant pellets were collected and suspended in 50 mM Tris-HCl (pH 7.5) containing 33% glycerol, to a final volume of 1.6 mg/g (wet weight) of yeast used. The suspension was divided into aliquots and kept at −70° C. until it is used.
(§1) The inhibitory activities against the chitin synthase 1 of Candida albicans chs2 Δ chs 3 Δ (abbreviated as ‘enzyme 1’) and the chitin synthase 2 of Saccharomyces cerevisiae ECY38-38A(pAS6)(abbreviated as ‘enzyme 2’) was examined for compound Nos. 1 to 70 compound and polyoxin D, a positive control compound.
(§2) The inhibitory activity against the chitin synthase 1 prepared from Candida albicans and the chitin synthase 2 prepared from Saccharomyces cerevisiae were examined as follows. A reaction mixture containing 32 mM Tris-HCl (pH 7.5), 2 mM cobalt acetate, 1.1 mM UDP-[U-^14C]-N-acetyl-d-glucosamine (GlcNAc) (400,000 cpm/μmol), 2 μL of trypsin (0.75 mg/mL), 20 μL of each crude enzyme and 14 μL of each test sample was kept at 30° C. for 15 minutes to activate the enzyme. Then, 2 μL of trypsin inhibitor (1.5 mg/mL) was added and the mixture was kept in an ice bath for 10 minutes to deactivate trypsin. 2 μL of 0.8 M N-acetyl-d-glucosamine was added to a total volume of 50 μL and reaction was performed at 30° C. for 90 minutes. The reaction was stopped using 1 mL of 10% TCA solution and the reaction solution was filtered with a GF/C filter and dried at room temperature. After adding 3 mL of a scintillation cocktail solution, the amount of isotopes was measured using a liquid scintillation counter. Percentage inhibition against each enzyme was calculated by the following Equation 1.
(§3) The control group was not added with a test sample in the reaction mixture and that of the untreated group contained neither the test sample nor the crude enzyme.
(§4) A 50% inhibitory activity of polyoxin D against the enzyme was given the value 5. A compound having the same inhibitory activity as that of polyoxin D at the same concentration was given the value 5. Compounds having the inhibitory activity at 2-fold, 4-fold, 8-fold and 16-fold higher concentrations than that of polyoxin D were given the values of 4, 3, 2 and 1, respectively. On the other hand, compounds having the inhibitory activity at ½, ¼ and ⅛ lower concentrations than that of polyoxin D were given the values of 6, 7 and 8, respectively.

[2] = biological target: T2, chitin synthase 1 of Candida albicans chs2 Δ chs 3 Δ (Candida albicans, UniProt P23316); test: In vitro enzyme assay for chitin synthase 1 of Candida albicans (enzyme 1); format: biochemical; details: relative to polyoxin D (50% inhibitory activity = value 5)
T2 construct: Crude enzyme was prepared using the Candida albicans chs2 Δ chs 3 Δ mutant; endogenous in cells; host or cells: Candida albicans chs2Δ/chs2Δ chs3Δ/chs3Δ mutant; 130,000 x g membrane pellet
T2 sequence (P23316 whole entry, stated change not applied): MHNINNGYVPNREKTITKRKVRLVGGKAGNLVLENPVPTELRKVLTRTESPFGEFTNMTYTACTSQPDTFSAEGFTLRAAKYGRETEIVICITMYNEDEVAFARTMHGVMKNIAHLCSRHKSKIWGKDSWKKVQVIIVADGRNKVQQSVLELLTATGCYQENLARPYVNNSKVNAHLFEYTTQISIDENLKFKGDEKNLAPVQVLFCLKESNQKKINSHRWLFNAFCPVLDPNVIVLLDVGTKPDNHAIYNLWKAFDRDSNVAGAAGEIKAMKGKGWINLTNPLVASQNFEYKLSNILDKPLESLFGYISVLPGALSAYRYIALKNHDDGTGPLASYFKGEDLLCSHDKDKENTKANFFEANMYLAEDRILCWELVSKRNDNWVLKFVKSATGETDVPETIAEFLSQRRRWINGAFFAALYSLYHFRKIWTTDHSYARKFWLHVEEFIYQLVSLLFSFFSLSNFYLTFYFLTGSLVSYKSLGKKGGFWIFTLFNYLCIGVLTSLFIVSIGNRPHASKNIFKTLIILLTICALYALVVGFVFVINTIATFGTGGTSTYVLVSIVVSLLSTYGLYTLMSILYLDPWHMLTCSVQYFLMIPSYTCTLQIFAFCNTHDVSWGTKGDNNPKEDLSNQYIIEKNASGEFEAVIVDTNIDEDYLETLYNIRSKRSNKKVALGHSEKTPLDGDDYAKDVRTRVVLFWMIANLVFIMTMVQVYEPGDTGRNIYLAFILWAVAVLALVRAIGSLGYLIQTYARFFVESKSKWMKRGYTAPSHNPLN
Procedure: Crude enzyme was prepared using the Candida albicans chs2 Δ chs 3 Δ mutant (chs2 Δ::hisG/chs2 Δ::hisG chs3 Δ::hisG/chs3 Δ::hisG) strain, which can only produce the chitin synthase 1. The strain was inoculated with the SDA (Sabouraud dextrose agar) culture medium (4% dextrose, 1% peptone, pH 5.6) and cultured at 30° C. for 15-17 hours until the absorbance at 550nm reaches 0.7. The cells were collected and suspended in a 50 mM Tris-HCl (pH 7.5) buffer solution containing 5 mM magnesium acetate. After centrifugation at 8,000×g for 10 minutes, the pellets were suspended in the same Tris-HCl buffer solution. The suspension was divided into aliquots in 50 mL conical test tubes. After adding glass beads, the cells were disrupted by vigorously vortexing with an interval of 30 seconds. The cell residues were removed by centrifuging at 3,000×g for 5 minutes. The supernatant was ultra-centrifuged at 130,000×g for 1 hour. The resultant pellets were collected and suspended in 50 mM Tris-HCl (pH 7.5) containing 33% glycerol, to a final volume of 1.6 mg/g (wet weight) of yeast used. The suspension was divided into aliquots and kept at −70° C. until it is used.
as §1, §2, §3, §4

Row | Molecule | Relative activity Enzyme 2 [1] | Relative activity Enzyme 1 [2]
1 | COc1ccc2c(Cc3ccc(C(OC)(OC)OC)cc3)c3[n+](cc2c1OC)CCc1cc2c(cc1-3)OCO2.[Cl-] [Comparative compound 3, reference compound] | 1 (Compounds having the inhibitory activity at 2-fold, 4-fold, 8-fold and 16-fold higher concentrations than that of polyoxin D were given the values of 4, 3, 2 and 1, respectively) | <1 (Compounds having the inhibitory activity at 2-fold, 4-fold, 8-fold and 16-fold higher concentrations than that of polyoxin D were given the values of 4, 3, 2 and 1, respectively)
2 | 13-(3,4,5-Trifluorobenzyl)-9-O-hexylberberrubine iodide [Compound No. 28] | 5 (A compound having the same inhibitory activity as that of polyoxin D at the same concentration was given the value 5) | 2 (Compounds having the inhibitory activity at 2-fold, 4-fold, 8-fold and 16-fold higher concentrations than that of polyoxin D were given the values of 4, 3, 2 and 1, respectively)
3 | 13-(3,4,5-Trimethoxybenzyl)berberrubine [Compound No. 2] | 3 (Compounds having the inhibitory activity at 2-fold, 4-fold, 8-fold and 16-fold higher concentrations than that of polyoxin D were given the values of 4, 3, 2 and 1, respectively) | 1 (Compounds having the inhibitory activity at 2-fold, 4-fold, 8-fold and 16-fold higher concentrations than that of polyoxin D were given the values of 4, 3, 2 and 1, respectively)
4 | 13-(4-Trifluoromethylbenzyl)berberrubine [Compound No. 4] | 3 (Compounds having the inhibitory activity at 2-fold, 4-fold, 8-fold and 16-fold higher concentrations than that of polyoxin D were given the values of 4, 3, 2 and 1, respectively) | 1 (Compounds having the inhibitory activity at 2-fold, 4-fold, 8-fold and 16-fold higher concentrations than that of polyoxin D were given the values of 4, 3, 2 and 1, respectively)
5 | COc1ccc2c(Cc3ccc(C(F)(F)F)cc3)c3[n+](cc2c1OCc1ccc(C(C)(C)C)cc1)CCc1cc2c(cc1-3)OCO2.[Br-] [Compound No. 38, 13-(4-Trifluoromethylbenzyl)-9-O-(4-tert-butylbenzyl)berberrubine bromide] | 5 (A compound having the same inhibitory activity as that of polyoxin D at the same concentration was given the value 5) | 2 (Compounds having the inhibitory activity at 2-fold, 4-fold, 8-fold and 16-fold higher concentrations than that of polyoxin D were given the values of 4, 3, 2 and 1, respectively)
6 | 13-(3,4,5-Trimethoxybenzyl)-9-O-butylberberrubine chloride [Compound No. 62] | 5 (A compound having the same inhibitory activity as that of polyoxin D at the same concentration was given the value 5) | 2 (Compounds having the inhibitory activity at 2-fold, 4-fold, 8-fold and 16-fold higher concentrations than that of polyoxin D were given the values of 4, 3, 2 and 1, respectively)
7 | 13-(3,4,5-Trifluorobenzyl)berberrubine [Compound No. 1] | 3 (Compounds having the inhibitory activity at 2-fold, 4-fold, 8-fold and 16-fold higher concentrations than that of polyoxin D were given the values of 4, 3, 2 and 1, respectively) | 1 (Compounds having the inhibitory activity at 2-fold, 4-fold, 8-fold and 16-fold higher concentrations than that of polyoxin D were given the values of 4, 3, 2 and 1, respectively)
8 | 13-(4-tert-Butylbenzyl)berberrubine [Compound No. 5] | 4 (Compounds having the inhibitory activity at 2-fold, 4-fold, 8-fold and 16-fold higher concentrations than that of polyoxin D were given the values of 4, 3, 2 and 1, respectively) | 2 (Compounds having the inhibitory activity at 2-fold, 4-fold, 8-fold and 16-fold higher concentrations than that of polyoxin D were given the values of 4, 3, 2 and 1, respectively)
9 | 13-(4-Trifluoromethylbenzyl)-9-O-hexylberberrubine chloride [Compound No. 69] | 5 (A compound having the same inhibitory activity as that of polyoxin D at the same concentration was given the value 5) | 3 (Compounds having the inhibitory activity at 2-fold, 4-fold, 8-fold and 16-fold higher concentrations than that of polyoxin D were given the values of 4, 3, 2 and 1, respectively)
10 | COc1ccc2c(Cc3ccc(C(F)(F)F)cc3)c3[n+](cc2c1OC)CCc1cc2c(cc1-3)OCO2.[Cl-] [Comparative compound 2, reference compound] | 2 (Compounds having the inhibitory activity at 2-fold, 4-fold, 8-fold and 16-fold higher concentrations than that of polyoxin D were given the values of 4, 3, 2 and 1, respectively) | <1 (Compounds having the inhibitory activity at 2-fold, 4-fold, 8-fold and 16-fold higher concentrations than that of polyoxin D were given the values of 4, 3, 2 and 1, respectively)
11 | 13-(4-Trifluoromethylbenzyl)-9-O-hexylberberrubine iodide [Compound No. 37] | 5 (A compound having the same inhibitory activity as that of polyoxin D at the same concentration was given the value 5) | 2 (Compounds having the inhibitory activity at 2-fold, 4-fold, 8-fold and 16-fold higher concentrations than that of polyoxin D were given the values of 4, 3, 2 and 1, respectively)
12 | 13-(3,4,5-Trifluorobenzyl)-9-O-butylberberrubine iodide [Compound No. 27] | 6 (compounds having the inhibitory activity at ½, ¼ and ⅛ lower concentrations than that of polyoxin D were given the values of 6, 7 and 8, respectively) | 3 (Compounds having the inhibitory activity at 2-fold, 4-fold, 8-fold and 16-fold higher concentrations than that of polyoxin D were given the values of 4, 3, 2 and 1, respectively)
13 | COc1ccc2c(Cc3ccc(OC(F)(F)F)cc3)c3[n+](cc2c1OCc1ccc(C(C)(C)C)cc1)CCc1cc2c(cc1-3)OCO2.[Cl-] [Compound No. 67, 13-(4-Trifluoromethoxybenzyl)-9-O-(4-tert-butylbenzyl)berberrubine chloride] | 5 (A compound having the same inhibitory activity as that of polyoxin D at the same concentration was given the value 5) | 2 (Compounds having the inhibitory activity at 2-fold, 4-fold, 8-fold and 16-fold higher concentrations than that of polyoxin D were given the values of 4, 3, 2 and 1, respectively)
14 | 13-(4-Trifluoromethylbenzyl)-9-O-butylberberrubine iodide [Compound No. 36] | 6 (compounds having the inhibitory activity at ½, ¼ and ⅛ lower concentrations than that of polyoxin D were given the values of 6, 7 and 8, respectively) | 3 (Compounds having the inhibitory activity at 2-fold, 4-fold, 8-fold and 16-fold higher concentrations than that of polyoxin D were given the values of 4, 3, 2 and 1, respectively)
